# Measured values published in paper PMC10246557, “Kinetic and inhibition studies on human Jumonji-C (JmjC) domain-containing protein 5” (RSC Chemical Biology, 2023).
# Like-named read-outs stand apart in the source and are kept apart here.
# Legend:
# human JMJD5 = target: T1, human JMJD5 (Homo sapiens, UniProt Q8N371); test: SPE-MS JMJD5 turnover and kinetic assay (RPS6_128–148 hydroxylation); type: biochemical; conditions: for JMJD5 (%): RPS6_128–148 hydroxylation with the compound as cosubstrate: absence of 2OG, JMJD5 0.15 μM, 2OG derivative 400 μM, Fe(II) 20 μM, RPS6_128–148 2.0 μM
# T1 construct: made in house; host or cells: Escherichia coli BL21(DE3)
# T1 sequence (Q8N371 whole entry): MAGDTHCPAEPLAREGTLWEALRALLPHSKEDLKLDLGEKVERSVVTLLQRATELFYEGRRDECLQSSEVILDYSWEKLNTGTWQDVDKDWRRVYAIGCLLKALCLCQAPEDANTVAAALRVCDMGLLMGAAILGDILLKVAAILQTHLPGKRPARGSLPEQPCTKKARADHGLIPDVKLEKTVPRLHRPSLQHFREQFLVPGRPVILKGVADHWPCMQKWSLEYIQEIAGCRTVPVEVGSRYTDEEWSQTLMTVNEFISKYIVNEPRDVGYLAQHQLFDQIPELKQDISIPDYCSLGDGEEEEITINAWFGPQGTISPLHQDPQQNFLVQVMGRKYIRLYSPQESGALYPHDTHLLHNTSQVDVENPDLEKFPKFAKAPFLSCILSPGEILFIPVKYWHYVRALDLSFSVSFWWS
# Procedure: JMJD5 turnover assays for time course and kinetic experiments were performed in 96-well polypropylene assay plates (Greiner) with either […] total reaction volume using the concentrations given in the manuscript or ESI, ^† and JMJD5-catalysed substrate hydroxylation was directly monitored using SPE-MS. […] Assay samples were aspirated under vacuum for 0.6 s and loaded onto a C4 solid phase extraction (SPE) cartridge. After loading, the C4 SPE cartridge was washed with 0.1%v/v aqueous formic acid to remove non-volatile buffer salts (5.5 s, 1.5 mL min^−1). The peptide was eluted from the SPE cartridge with 0.1%v/v aqueous formic acid in 80/20v/v acetonitrile/water into the mass spectrometer (5.5 s, 1.5 mL min^−1) and the SPE cartridge re-equilibrated with 0.1%v/v aqueous formic acid (0.5 s, 1.5 mL min^−1). The mass spectrometer was operated using the MassHunter Workstation B.08.00 software (Agilent), the mass spectrometer parameters were: capillary voltage (4000 V), nozzle voltage (1000 V), fragmentor voltage (365 V), gas temperature (280 °C), gas flow (13 L min^−1), sheath gas temperature (350 °C), sheath gas flow (12 L min^−1). […] Data were exported into Microsoft Excel and used to calculate the % conversion of the hydroxylation reaction using the equation: % conversion = 100 × (integral product peptide)/(integral substrate peptide + integral product peptide).
# parameters (continues on the following two pages). Maximum velocities (vapp ) and Michaelis constants (Kapp)
# of JMJD5 were determined in independent triplicates, monitoring the JMJD5-catalyzed hydroxylation of the
# SPE-MS, as described (Experimental Section).
# 20 °C). Measurement times were normalized to the first sample injection analyzed after the addition of JMJD5 to
# shown as the mean of three independent runs (n = 3; mean ± standard deviation, SD).
# hexahydrate (20 μM, (NH4)2Fe(SO4)2·6H2O); and (b) hydroxylation rates used to determine kinetic parameters of
# (1 picture or pasted object on this page, not shown here)
# Maximum velocities (vapp ) and
# Michaelis constants (Kapp) of JMJD5 were determined in independent triplicates for (1R)-3-
# (carboxycarbonyl)cyclopentane-1-carboxylic acid (14), monitoring the JMJD5-catalyzed hydroxylation of the
# as described (Experimental Section).
# pH 7.5, 20 °C). Measurement times were normalized to the first sample injection analyzed after the addition of
# (§1) Data are shown as the mean of three independent runs (n = 3; mean ± SD).
# to determine kinetic parameters of JMJD5 for 14.
# human FIH = conditions: FIH 0.15 μM, cited from earlier work; for FIH (%): substrate hydroxylation with the compound as cosubstrate: absence of 2OG, 2OG derivative 330 μM, Fe(II) 50 μM, HIF-1α788–822 5.0 μM; for K m / k cat: HIF-1α788–822 substrate
# human AspH = conditions: absence of 2OG; AspH 0.1 μM, 2OG derivative 330 μM, Fe(II) 50 μM, hFX-CP101–119 2.0 μM; cited from earlier work
# human KDM4E = target: T2, human KDM4E (Homo sapiens, UniProt B2RXH2); test: KDM4E SPE-MS turnover and kinetic assay (H3 K9(me3) peptide demethylation); type: biochemical; conditions: for K app m / k app cat: 0.15 μM KDM4E, ARTAQTARK(me3)STGGIA 10 μM
# T2 sequence (B2RXH2 1-506): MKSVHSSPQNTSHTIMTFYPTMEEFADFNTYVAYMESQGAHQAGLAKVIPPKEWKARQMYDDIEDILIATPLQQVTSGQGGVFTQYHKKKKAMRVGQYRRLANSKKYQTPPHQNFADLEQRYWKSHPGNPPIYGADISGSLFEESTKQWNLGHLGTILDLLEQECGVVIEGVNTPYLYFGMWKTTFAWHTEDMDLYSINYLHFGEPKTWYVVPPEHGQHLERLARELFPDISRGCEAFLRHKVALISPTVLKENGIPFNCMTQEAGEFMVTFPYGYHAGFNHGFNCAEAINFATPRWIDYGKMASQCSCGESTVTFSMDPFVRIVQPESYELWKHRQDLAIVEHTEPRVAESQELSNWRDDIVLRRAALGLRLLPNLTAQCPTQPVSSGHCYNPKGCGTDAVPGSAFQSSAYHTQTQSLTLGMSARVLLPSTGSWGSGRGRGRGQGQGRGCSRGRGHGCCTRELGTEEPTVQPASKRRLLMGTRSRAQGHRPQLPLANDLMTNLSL
# Procedure: KDM4E turnover and inhibition assays were performed as reported using recombinant human KDM4E and a histone 3 K9(me3) derivative (i.e. […](me3)STGGIA)[41] as substrate.[95]
# Supplementary Figure S3. Rates of KDM4E-catalyzed Nε-trimethyl lysine demethylations of a histone 3- […]
# Maximum velocities (vapp ) and Michaelis […]
# catalyzed Nε-trimethyl lysine demethylation of the histone 3 K9(me3)-derived peptide […]
# (me3)STGGIA2 by SPE-MS as described;3 note that mono-, di-, and tri-demethylated product […]
# buffer (50 mM MES, pH 7.0, 20 °C). Measurement times were normalized to the first sample injection analyzed […]
# as §1
# (a) Time course of the KDM4E-catalyzed Nε-trimethyl lysine demethylation reaction of the […]
# [1] = absence of 2OG, KDM4E 0.15 μM, 2OG derivative 330 μM, Fe(II) 50 μM, ARTAQTARK(me3)STGGIA 10.0 μM
Molecule,JMJD5 (%): RPS6_128–148 hydroxylation with the compound as cosubstrate (human JMJD5),KDM4E (%): substrate demethylation with the compound as cosubstrate (human KDM4E; [1]),FIH (%): substrate hydroxylation with the compound as cosubstrate (human FIH),AspH (%): substrate hydroxylation with the compound as cosubstrate (human AspH),other results
O=C(O)CCC(=O)C(=O)O [C00019],,,,,"K app m (human JMJD5; 0.15 μM JMJD5, 50 mM MOPS pH 7.5, 20 °C, LAA present): 0.29 ± 0.04 µM; k app cat (human JMJD5; 0.15 μM JMJD5, 50 mM MOPS pH 7.5, 20 °C, LAA present, calculated from vmax): 0.0056 ± 0.0002 s⁻¹"
CC1(C)C(C(=O)O)C1C(=O)C(=O)O (mixture of isomers) [Entry 21],< 1%,< 1%,< 1%,< 1%,
CCCC(CC(=O)C(=O)O)C(=O)O (stereo not drawn) [C00006],∼10%,<1%,∼5%,<1%,
O=C(O)CCC(=O)C(=O)O [C00001],∼40%,,∼50%,,KDM4E (%): substrate demethylation with the compound as cosubstrate (human KDM4E): ∼70%
CC(C)(C)CCC(CC(=O)C(=O)O)C(=O)O (racemic) [Entry 17],< 1%,< 1%,< 1%,< 1%,
O=C(O)CCC(=O)C(=O)O [C00021],,,,,K m (human FIH): 0.8 ± 0.1 µM; k cat (human FIH): 0.04 ± 0.01 s⁻¹
O=C(O)C(=O)c1ccccc1C(=O)O [Entry 26],< 1%,< 1%,< 1%,< 1%,
"RCCD1_134–150: RCCD1 amino acids 134–150, LPLLPCARAYVSPRAPF, JMJD5 substrate peptide [reference compound]",,,,,"JMJD5-catalyzed hydroxylation of the substrate peptide (human JMJD5; after 1 h incubation, 50 mM MOPS pH 7.5, 20 °C): < 10%"
O=C(O)C(=O)CC(Cc1ccccc1)C(=O)O (racemic) [Entry 19],< 1%,< 1%,< 1%,< 1%,
CC(C)CC(CC(=O)C(=O)O)C(=O)O (racemic) [Entry 16],< 1%,< 1%,< 1%,< 1%,
O=C(O)C(=O)c1ccccc1C(=O)O [C00014],<1%,<1%,<1%,<1%,
O=C(O)C(=O)C1CC[C@@H](C(=O)O)C1 (stereo partly drawn) [C00022],,,,,K m (human FIH): 14.8 ± 2.6 µM; k cat (human FIH): 0.01 ± 0.001 s⁻¹
CC1(C)c2ccccc2-c2ccc(CC(CC(=O)O)C(=O)C(=O)O)cc21 (stereo not drawn) [C00015],<1%,<1%,<1%,<1%,
O=C(O)C(=O)C1CC[C@@H](C(=O)O)C1 (stereo partly drawn) [C00012],,<1%,∼2%,∼15%,
O=C(O)C(=O)CC(Cc1ccccc1)C(=O)O (stereo not drawn) [C00010],<1%,<1%,<1%,<1%,
CC(CC(=O)C(=O)O)C(=O)O (stereo not drawn) [C00017],∼10%,<1%,∼45%,∼10%,
O=C(O)CC(Cc1ccc(OC(F)(F)F)cc1)C(=O)C(=O)O (stereo not drawn) [C00011],<1%,<1%,<1%,<1%,
O=C(O)C(=O)C1CC[C@@H](C(=O)O)C1 (stereo partly drawn) [C00024],,,,,K app m (human KDM4E): No reaction; k app cat (human KDM4E): No reaction
"O=C1O[C@H]([C@@H](O)CO)C(O)=C1O [LAA, L-ascorbic acid, reference compound]",,,,,cosubstrate/cofactor role for JMJD5 (human JMJD5): not a cosubstrate/cofactor
O=C(O)CCC(=O)C(=O)O [C00023],,,,,K app m (human KDM4E): 4.2 ± 1.1 µM; k app cat (human KDM4E): 0.14 ± 0.01 s⁻¹

# Second part, led by results:
JMJD5 (%): RPS6_128–148 hydroxylation with the compound as cosubstrate (human JMJD5),KDM4E (%): substrate demethylation with the compound as cosubstrate (human KDM4E; [1]),Molecule,FIH (%): substrate hydroxylation with the compound as cosubstrate (human FIH),AspH (%): substrate hydroxylation with the compound as cosubstrate (human AspH),other results
<1%,<1%,O=C(O)C(=O)c1ccc(C(=O)O)cc1 [C00018],<1%,∼80%,
,<1%,CC(C)(CC(=O)C(=O)O)C(=O)O [C00002],,,
<1%,<1%,O=C(O)C(=O)c1cccc(C(=O)O)c1 [C00016],<1%,<1%,
∼10%,∼5%,COc1ccc(CC(CC(=O)O)C(=O)C(=O)O)cc1 (stereo not drawn) [C00013],<1%,<1%,
∼10%,∼10%,CC(CC(=O)O)C(=O)C(=O)O (stereo not drawn) [C00003],∼55%,>95%,
<1%,<1%,O=C(O)C(=O)CC(CCCc1ccccc1)C(=O)O (stereo not drawn) [C00008],<1%,<1%,
∼10%,<1%,CCC(CC(=O)C(=O)O)C(=O)O (stereo not drawn) [C00004],∼10%,<1%,
